Results from patent US8193191B2, “Urotensin II receptor antagonists” (Janssen Pharmaceutica N.V., priority 2006, dated 2012).
Where two headings read alike, the source gives them in different places.

Key:
[1] = target: T1, rat GPR14 (U-II receptor) (Rattus norvegicus, UniProt P49684); test: Rat UII Calcium Mobilization FLIPR Assay; assay type: cell-based; settings: average value for the compound tested; read-out: Rat UII FLIPR Average IC50
T1 construct: expressed in transfected cells
T1 sequence (P49684 1-386): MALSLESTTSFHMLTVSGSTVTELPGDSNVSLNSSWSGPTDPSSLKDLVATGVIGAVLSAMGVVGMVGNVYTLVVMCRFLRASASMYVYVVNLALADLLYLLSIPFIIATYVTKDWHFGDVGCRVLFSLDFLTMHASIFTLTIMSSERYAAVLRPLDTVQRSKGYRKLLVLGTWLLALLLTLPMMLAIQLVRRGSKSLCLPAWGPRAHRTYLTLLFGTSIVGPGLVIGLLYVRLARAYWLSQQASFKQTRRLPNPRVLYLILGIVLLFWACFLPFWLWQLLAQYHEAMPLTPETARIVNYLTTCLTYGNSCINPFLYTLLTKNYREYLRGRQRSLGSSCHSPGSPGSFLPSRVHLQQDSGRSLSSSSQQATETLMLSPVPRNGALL
Procedure, shortened: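 CHO cells stably expressing rat U-II receptor, seeded 24 h before assay, were loaded with FLIPR calcium dye in HBSS/20 mM HEPES/0.1% BSA/2.5 mM probenecid, pH 7.4, for 1 h at 37° C. Calcium mobilization then read by FLIPR at 23° C.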

[2] = target: T2, Human UII receptor, 6D9 human rhabdomyosarcoma cells (Homo sapiens, UniProt Q9UKP6); test: Human UII Calcium Mobilization Assay; assay type: cell-based; settings: average value, FLIPR TETRA, read-out: Human UII Ca^+ Mobilization Average IC50
T2 construct: 6D9: isolated by dilution subcloning of RMS13 cells, ATCC® Number: CRL-2061; host or cells: 6D9 human rhabdomyosarcoma cells (subclone of RMS13)
T2 sequence (Q9UKP6 1-389): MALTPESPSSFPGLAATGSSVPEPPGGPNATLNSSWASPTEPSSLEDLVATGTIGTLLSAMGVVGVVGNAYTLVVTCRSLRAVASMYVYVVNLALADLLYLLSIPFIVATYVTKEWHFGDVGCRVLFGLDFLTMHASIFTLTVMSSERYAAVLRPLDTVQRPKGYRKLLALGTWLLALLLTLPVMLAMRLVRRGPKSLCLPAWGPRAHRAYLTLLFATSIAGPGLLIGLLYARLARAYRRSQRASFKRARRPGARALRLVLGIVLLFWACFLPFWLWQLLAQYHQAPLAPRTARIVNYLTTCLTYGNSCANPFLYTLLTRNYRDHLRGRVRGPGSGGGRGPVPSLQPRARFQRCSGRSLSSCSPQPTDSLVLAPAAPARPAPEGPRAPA
Description: 6D9 human rhabdomyosarcoma cells were seeded into tissue culture treated 384-well black-walled clear bottom plates (3712, Corning Incorporated, Corning, N.Y.) at 8,000 cells/well in 25 μL of culture medium, and maintained in an incubator (5% CO2 at 37° C.) for 22 hrs prior to the calcium mobilization assay. 25 μL of dye solution was added to the wells such that the final liquid volume before agonist/antagonist treatment was 50 μL for all assays. The cell plates were incubated at 37° C. for 45 minutes and the fluorescence intensity was measured on a Fluorometric Imaging Plate Reader (FLIPR^TETRA, Molecular Devices, Sunnyvale, Calif.).
Antagonist and agonist U-II were added at room temperature on the FLIPR^TETRA, and the fluorescence intensity before and after addition was measured over a period of 4 minutes. The dye incubation time and temperature as well as instrument setting was adjusted so the fluorescence intensity could be compared between plates on the same day. EC50 and IC50 were analyzed using GraphPad Prism 4 software (GraphPad Software Inc., San Diego, Calif.).
Materials and reagent Preparation: Human Rhabdomyosarcoma cells (6D9: isolated by dilution subcloning of RMS13 cells, ATCC® Number: CRL-2061, American Type Culture Collection ATCC, Manassas, Va.) was maintained in RPMI-1640 medium (30-2001, ATCC, Manassas, Va.) supplemented with 10% (v/v) Fetal Bovine Serum (SH30071.03, Hyclone, Logan, Utah).
Dye preparation: BD™ Calcium Assay Kit (80500-301, BD Biosciences, Rockville, Md.) was prepared according to the manufacture's instruction in 1× Hanks' balanced salt solution (HBSS, 21-023-CV, Mediatech, Inc. Herndon, Va.) containing 20 mM HEPES buffer (25-060-CI, Mediatech, Inc. Herndon, Va.). Final dye loading conditions included 1.25 mM probenecid (P36400, Invitrogen, Carlsbad, Calif.) and 0.01% FBS.
Urantide (PUT-3639-PI, Peptide International, Louisville, Ky.) was prepared in water at 5 mM. For assays, U-II agonist, U-II antagonist and urantide were diluted with HBSS/HEPES containing 0.01% FBS.
Test compounds were dissolved in DMSO at 10 mM concentration. The serial dilutions were carried out in HBSS/HEPES. The highest final DMSO concentration was at 0.1%.

[3] = target: T3, endogenous human UII receptor (Homo sapiens, UniProt Q9UKP6); test: Human Radioligand Binding Assay ((^125I)-U-II binding to human skeletal muscle myoblasts)
T3 sequence (Q9UKP6 1-389): T2 sequence (Q9UKP6 1-389)

[4] = read-out: Human UII Average Binding Ki, average value, (^125I)-U-II binding to human skeletal muscle myoblasts (HSMM), 25° C., 3 h

SMILES | IC50 [1] [nM] | IC50 [2] [nM] | Ki [3] [nM] | Ki [3, 4] [nM]
CCN1CCN(c2cccc3c2C(=O)N([C@H](CCCOS(=O)(=O)N(C)C)c2ccc(OC)c(OC)c2)C3=O)CC1 [Cpd 209, (R)-dimethyl-sulfamic acid 4-(3,4-dimethoxy-phenyl)-4-[4-(4-ethyl-piperazin-1-yl)-1,3-dioxo-1,3-dihydro-isoindol-2-yl]-butyl ester] |  | 3800 | 290 | 
COc1ccc([C@@H](CCCNC(=O)c2c(C)n[nH]c2C)N2C(=O)c3cccc(N4CCN([C@H](C)c5ccccc5)CC4)c3C2=O)cc1OC [Cpd 215, (R)-3,5-dimethyl-1H-pyrazole-4-carboxylic acid (4-(3,4-dimethoxy-phenyl)-4-{1,3-dioxo-4-[4-(1R)-(1-phenyl-ethyl)-piperazin-1-yl]-1,3-dihydro-isoindol-2-yl}-butyl)-amide] | 11 | 37 |  | 87
COc1ccc([C@@H](CCCNS(=O)(=O)c2cccs2)N2C(=O)c3cccc(N4CCN(C)CC4)c3C2=O)cc1OC [Cpd 169, (R)-thiophene-2-sulfonic acid {4-(3,4-dimethoxy-phenyl)-4-[4-(4-methyl-piperazin-1-yl)-1,3-dioxo-1,3-dihydro-isoindol-2-yl]-butyl}-amide] | 16 | 220 |  | 59
COc1ccc([C@@H](CCCNC(=O)C(C)C)N2C(=O)c3cccc(OC4CCN(C)C4)c3C2=O)cc1OC (stereo partly drawn) [Cpd 200, (R)-N-{4-(3,4-dimethoxy-phenyl)-4-[4-(1-methyl-pyrrolidin-3-yloxy)-1,3-dioxo-1,3-dihydro-isoindol-2-yl]-butyl}-isobutyramide] | 4000 | > 10000 |  | 

Continued, in another order:

IC50 [1] [nM] | IC50 [2] [nM] | Ki [3] [nM] | SMILES | Ki [3, 4] [nM]
31 | 1500 | 69 | COc1ccc([C@@H](CCCNC(=O)[C@@H]2CCCN2C)N2C(=O)c3cccc(N4CCN([C@H](C)c5ccccc5)CC4)c3C2=O)cc1OC [Cpd 191, (S)-1-methyl-pyrrolidine-2-carboxylic acid (R)-(4-(3,4-dimethoxy-phenyl)-4-{1,3-dioxo-4-[4-(1R)-(1-phenyl-ethyl)-piperazin-1-yl]-1,3-dihydro-isoindol-2-yl}-butyl)-amide] | 
13 | 820 | 37 | COc1ccc([C@@H](CCCNC(=O)c2ccoc2)N2C(=O)c3cccc(N4CCN([C@H](C)c5ccccc5)CC4)c3C2=O)cc1OC [Cpd 186, (R)-furan-3-carboxylic acid (4-(3,4-dimethoxy-phenyl)-4-{1,3-dioxo-4-[4-(1R)-(1-phenyl-ethyl)-piperazin-1-yl]-1,3-dihydro-isoindol-2-yl}-butyl)-amide] | 
9.6 | 580 | 40 | CCOCC(=O)NCCC[C@H](c1ccc(OC)c(OC)c1)N1C(=O)c2cccc(N3CCN([C@H](C)c4ccccc4)CC3)c2C1=O [Cpd 182, (R)-N-(4-(3,4-dimethoxy-phenyl)-4-{1,3-dioxo-4-[4-(1R)-(1-phenyl-ethyl)-piperazin-1-yl]-1,3-dihydro-isoindol-2-yl}-butyl)-2-ethoxy-acetamide] | 
63 | 700 | 180 | COc1ccc(C(CCCNS(=O)(=O)c2sc(NC(C)=O)nc2C)N2C(=O)c3cccc(N4CCN([C@H](C)c5ccccc5)CC4)c3C2=O)cc1OC (stereo partly drawn) [Cpd 97, N-[5-(4-(3,4-dimethoxy-phenyl)-4-{1,3-dioxo-4-[4-(1R)-(1-phenyl-ethyl)-piperazin-1-yl]-1,3-dihydro-isoindol-2-yl}-butylsulfamoyl)-4-methyl-thiazol-2-yl]-acetamide] | 
480 | 1500 |  | COc1ccc(CN2C(=O)c3cccc(N4CCN(C5C6CC7CC(C6)CC5C7)CC4)c3C2=O)cc1OC (stereo not drawn) [Cpd 87, 4-(4-adamantan-2-yl-piperazin-1-yl)-2-(3,4-dimethoxy-benzyl)-isoindole-1,3-dione] | 
